Test results from patent publication US20220211796A1, “PEPTIDE ANTIBIOTICS AND METHODS OF USE THEREOF” (priority 2019, published 2022).
Values after ≈ are worked out from the molar mass of the structure shown. Numbered stars: 1 amine (or outer) side, 2 acyl side, 3 side chain; on linkers, the order of the positions; unused ones are H or OH. Bridge positions count the residues as written; N and C are the ends. Square brackets hold non-standard residues; d marks the D form. Ends that are not written are not given here. Peptide text beside a SMILES is read from it. TBMB = c1c(C[*:1])cc(C[*:3])cc1C[*:2]

Assays:
[1] = system: B. subtilis ATCC 6633; test: microbe, parasite or virus in culture
Method: (§1) The L-peptides identified from five different phage display libraries were catalogued as described previously and selected sequences were synthesized in D-enantiomeric form by SPPS for further investigation in several biological assays.
(§2) MICs were determined according to a 96-well microdilution protocol outlined by the Clinical and Laboratory Standard Institute (CLSI) guideline with modifications for peptide antibiotics reported by Wiegand et al.^35 Two-fold serial peptide dilutions were performed to go from 2560 μg/ml to 5 μg/ml in0.2% BSA and 0.01% acetic acid buffer in 96-well polypropylene plates (COSTAR, #3879). Dilution of bacterial suspensions (1:200) of different bacterial strains that were grown until 0.5 McFarland standard were prepared to obtain a final inoculum concentration of 8×10^5 CFU/ml in Mueller-Hinton broth.

[2] = system: E. coli ATCC 25992; test: microbe, parasite or virus in culture
Method: as §1, §2

[3] = system: E. faecalis ATCC 29121; test: microbe, parasite or virus in culture
Method: as §1, §2

[4] = system: Methicillin-resistant S. aureus (MRSA) ATCC 43300; test: microbe, parasite or virus in culture
Method: as §1, §2

[5] = system: S. aureus ATCC 6538; test: microbe, parasite or virus in culture
Method: as §1, §2

[6] = system: high level vancomycin resistant E. faecium (vanA) ATCC 51559; test: microbe, parasite or virus in culture
Method: as §1, §2

[7] = system: low level vancomycin resistant E. faecium (vanB) ATCC 51299; test: microbe, parasite or virus in culture
Method: as §1, §2

[8] = system: several Gram-positive strains (with one Gram-negative strain as control); test: MIC / antibiotic susceptibility, strains not singled out; type: cell-based; details: vancomycin-sensitive bacteria
Method: as §1, §2

[9] = system: human red blood cells (hRBC); test: Hemolytic activity; type: cell-based; details: concentrations up to 256 μg/ml
Method: Fresh red human blood cells (hRBC) were washed and centrifuged at 3000 rpm for 5 min at 4° C. with PBS until a clear solution was obtained. Two-fold serial dilutions of each peptide in PBS from 0.5 μg/ml to 256 μg/ml were incubated with 0.25% (v/v) hRBC suspension at 37° C. for 1 h, and then centrifuged for 5 min at 3500 rpm in 96-well plate. 50 μl of the supernatant from each well was diluted with 50 μl pure water, and the OD at 415 nm was measured using microplate reader. Melittin at the same concentrations (200 μg/ml for complete lysis) was used as a positive control. Percent hemolysis was calculated according to the equation: […]
where complete hemolysis was defined as the average hemolysis of all wells containing a final concentration of melittin ranging from 50 to 400 μg/ml. Experiments were performed as triplicates at different days.

[10] = system: S. aureus; test: Time-kill kinetic assay; type: cell-based; details: 10×MIC, 5×MICs
Method: The bacteria-killing kinetics of peptides with S. aureus was measured at 5×MICs, and vancomycin was used as a positive control. An overnight culture of bacterial cells was re-suspended in fresh MH broth at density of 10^7 cells/ml, and cultured with peptides at 37° C. Viable colony forming units (CFUs) were counted by performing tenfold serial dilutions of the aliquot sample at intervals of 0, 1, 2, 4, 8, 12, and 24 hours after inoculation, and plated on MHB agar plates. Time-kill curves were plotted as Log10 (cfu ml^−1) versus time functions.

[11] = system: cell wall biosynthesis in S. aureus; test: Accumulation of UDP-N-acetylmuramyl-pentapeptide precursor; type: cell-based; details: 10-fold MIC, 1 h
Excerpt: We next examined the effect of P14 and P15 on cell wall biosynthesis in live bacteria. Blockade of this biosynthetic pathway causes accumulation of the water soluble intracellular intermediate lipid II precursor UDP-MurNAc-L-Ala-D-γ-Glu-L-Lys-D-Ala-D-Ala.^40 This intermediate is detectable after extraction from the cytosol in response to antibiotic administration by chromatographic methods.
Accumulation of UDP-N-acetylmuramyl-pentapeptide precursor from S. aureus Accumulation of peptidoglycan precursor of S. aureus […] was analyzed in the presence of peptide antibiotics. Bacteria were grown at 37° C. till OD600 of 0.5 was attained. Ten times MICs of peptide antibiotics were added per ml of grown bacterial culture and allowed to stand for 1 h. After cooling the cells on ice, they were harvested by centrifugation at 4° C. for 15 min. Bacterial cells were suspended in distilled water, and then slowly stirred into boiling water for 15 min. The suspension was allowed to cool first at room temperature, then on ice. After centrifugation at 4° C. for 1 h, the supernatant was lyophilized. The lyophilized sample was dissolved in water, and pH was adjusted to 2 by addition of 20% H3PO4. The white precipitate was removed by centrifugation, and the supernatant was immediately subjected to RP-HPLC analysis and MWs were assessed by MALDI-TOF mass spectroscopy.

[12] = Table 6, high level vancomycin resistant E. faecium ATCC51559
[13] = Table 6, low level vancomycin resistant E. faecium ATCC51299
[14] = Table 5, E. faecalis ATCC 29121
[15] = Table 5, high level vancomycin resistant E. faecium ATCC 51559
[16] = Table 5, low level vancomycin resistant E. faecium ATCC 51299

Compound	MIC B. subtilis ([1]; Table 6, B. subtilis ATCC6633) [µg/mL]	MIC E. coli ([2]; Table 6, E. Coli ATCC25992) [µg/mL]	MIC E. faecalis ([3]; Table 6, E. faecalis ATCC29121) [µg/mL]	MIC MRSA ([4]; Table 6, MRSA ATCC43300) [µg/mL]	MIC S. aureus ([5]; Table 6, S. aureus ATCC6538) [µg/mL]	MIC VRE (vanA) [6, 12] [µg/mL]	activity against vanB / low-level vancomycin-resistant strain [7]	MIC VRE (vanB) [7, 13] [µg/mL]	activity against vancomycin-sensitive bacterial strains [8]	lysis / toxicity on red blood cells [9]	MIC B. subtilis ([1]; Table 5, B. subtilis ATCC 6633) [µg/mL]	MIC E. coli ([2]; Table 5, E. coli ATCC 25992) [µg/mL]	MIC E. faecalis [3, 14] [µg/mL]	MIC VRE (vanA) [6, 15] [µg/mL]	killing kinetics / bactericidal activity [10]	accumulation of UDP-MurNAc-pentapeptide [11]	MIC VRE (vanB) [7, 16] [µg/mL]	MIC B. subtilis ([1]; ATCC 6633) [µg/mL]	MIC E. coli ([2]; ATCC 25992) [µg/mL]	MIC E. faecalis ([3]; ATCC 29121) [µg/mL]	also measured
CGGGICRTHNC [P18]	16	>256	128	32	16	>256	moderate activity	128	excellent activity	neither caused lysis of erythrocytes	–	–	–	–	–	–	–	–	–	–	–
CQTDVCQRTIC ([dC][dQ][dT][dD][dV][dC][dQ][dR][dT][dI][dC]; not fully specified (bridges); also: bicyclic, ring places and kind not given here) [P14, bicyclic D-peptide (library BC-A)]	–	–	–	–	–	–	high antibacterial activity	–	high antibacterial activity	neither caused lysis of erythrocytes	8	>256	32	128	bactericidal activity similar to vancomycin	accumulation of UDP-MurNAc-pentapeptide at levels similar to vancomycin	–	–	–	–	MIC against MRSA [4]: 32 µg/mL; MIC against S. aureus [5]: 8 µg/mL; activity against vanA / high-level vancomycin-resistant strain [6]: high antibacterial activity; MIC against vanB vancomycin-resistant Enterococci [7]: 32 µg/mL
CSLITQCGGVGC ([dC][dS][dL][dI][dT][dQ][dC]GG[dV]G[dC]; not fully specified (bridges); also: bicyclic, ring places and kind not given here) [P15, bicyclic D-peptide (library BC-B)]	–	–	–	–	–	–	–	–	similarly high activity as P14	neither caused lysis of erythrocytes	8	>256	16	>256	bactericidal activity similar to vancomycin	accumulation of UDP-MurNAc-pentapeptide at levels similar to vancomycin	128	–	–	–	MIC MRSA ([4]; Table 5, MRSA ATCC 43300): 32 µg/mL; MIC S. aureus ([5]; Table 5, S. aureus ATCC 6538): 8 µg/mL
CC(C)[C@@H](N)C(=O)N[C@H](Cc1c[nH]cn1)C(=O)N[C@H](Cc1c[nH]c2ccccc12)C(=O)N[C@H](CC(=O)O)C(=O)N[C@H](Cc1ccccc1)C(=O)N[C@H](CCCNC(=N)N)C(=O)N[C@H](CCC(N)=O)C(=O)N[C@H](Cc1c[nH]c2ccccc12)C(=O)N[C@H](Cc1c[nH]c2ccccc12)C(=O)N[C@H](CCC(N)=O)C(=O)N1CCC[C@@H]1C(=O)N[C@H](CO)C(N)=O [P4, VHWDFRQWWQPS] (H-[dV][dH][dW][dD][dF][dR][dQ][dW][dW][dQ][dP][dS]-NH2)	–	–	–	–	–	–	–	–	–	–	–	–	–	–	–	–	128 (≈ 76.6 µM)	32 (≈ 19.2 µM)	>256	32 (≈ 19.2 µM)	MIC MRSA ([4]; ATCC 43300): 64 µg/mL (≈ 38.3 µM); MIC S. aureus ([5]; ATCC 6538): 32 µg/mL (≈ 19.2 µM); MIC VRE (vanA) ([6]; ATCC 51559): >256 µg/mL
CC(C)C[C@H]1NC(=O)[C@@H](CCC(N)=O)NC(=O)[C@@H](CO)NC(=O)[C@@H](CO)NC(=O)[C@@H](CO)NC(=O)[C@H]2CSCc3cc(cc(c3)CSC[C@H](C(N)=O)NC(=O)[C@@H](Cc3ccc(O)cc3)NC1=O)CSC[C@@H](N)C(=O)N[C@H]([C@H](C)O)C(=O)N[C@H](CCCNC(=N)N)C(=O)N[C@H](C(C)C)C(=O)N2 [P19, CTRVCSSSQLYC] (H-[dC][dT][dR][dV][dC][dS][dS][dS][dQ][dL][dY][dC]-NH2; linker 1-5-12 via TBMB)	128 (≈ 87.5 µM)	>256	>256	>256	128 (≈ 87.5 µM)	>256	–	>256	–	–	–	–	–	–	–	–	–	–	–	–	–
CC(C)C[C@@H](NC(=O)[C@@H](CC(N)=O)NC(=O)[C@@H](CO)NC(=O)CNC(=O)[C@H](N)C(C)C)C(=O)N[C@H](CCCNC(=N)N)C(=O)N[C@H](CC(C)C)C(=O)N[C@H](CC(C)C)C(=O)N[C@H](Cc1c[nH]cn1)C(=O)N[C@H](CCC(N)=O)C(=O)N[C@H](Cc1c[nH]c2ccccc12)C(=O)N[C@H](CCCCN)C(N)=O [P3, VGSNLRLLHQWK] (H-[dV]G[dS][dN][dL][dR][dL][dL][dH][dQ][dW][dK]-NH2)	–	–	–	–	–	–	–	–	–	–	–	–	–	–	–	–	>256	32 (≈ 22.1 µM)	>256	32 (≈ 22.1 µM)	MIC MRSA ([4]; ATCC 43300): 64 µg/mL (≈ 44.1 µM); MIC S. aureus ([5]; ATCC 6538): 32 µg/mL (≈ 22.1 µM); MIC VRE (vanA) ([6]; ATCC 51559): >256 µg/mL
